Test results published in PubChem BioAssay AID192 (DTP/NCI, 2004).
Several values for one entry are separate records, joined by “and”; a condition that tells them apart may be missing. Identical values can stand only once. Toxic doses and inconclusive results are not listed. The calls were made as follows: active = survival T/C of 150% or more; inactive = T/C below 125% in these data.

System: BDF1 mice, B16 melanoma ip, median survival T/C
Experiment: NCI In Vivo Anticancer Drug Screen. Data for tumor model B16 Melanoma (intraperitoneal) in B6D2F1 (BDF1) mice
Conditions: endpoint: median survival time, higher = longer survival
Procedure, shortened: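 In this screen, activity was judged from survival or tumor size in treated versus vehicle-treated tumor-bearing mice, reported as T/C.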

[1] = dose: 80.0 mg/kg/injection, schedule: Q01DX009 (ip), vehicle: saline
[2] = dose: 100.0 mg/kg/injection, schedule: Q01DX009 (ip), vehicle: Klucel (hydroxypropylcellulose) (HPC)
[3] = dose: 200.0 mg/kg/injection, schedule: Q01DX009 (ip), vehicle: Klucel (hydroxypropylcellulose) (HPC)
[4] = dose: 12.5 mg/kg/injection, schedule: Q01DX009 (ip), vehicle: Klucel (hydroxypropylcellulose) (HPC)
[5] = dose: 25.0 mg/kg/injection, schedule: Q01DX009 (ip), vehicle: Klucel (hydroxypropylcellulose) (HPC)
[6] = dose: 50.0 mg/kg/injection, schedule: Q01DX009 (ip), vehicle: Klucel (hydroxypropylcellulose) (HPC)
[7] = dose: 50.0 mg/kg/injection, schedule: Q01DX009 (ip), vehicle: saline with Tween-80
[8] = dose: 100.0 mg/kg/injection, schedule: Q01DX009 (ip), vehicle: saline with Tween-80
[9] = dose: 200.0 mg/kg/injection, schedule: Q01DX009 (ip), vehicle: saline with Tween-80
[10] = dose: 12.5 mg/kg/injection, schedule: Q01DX009 (ip), vehicle: saline

Measured: T/C

COC(=O)C(N)CCCCNc1ccc2c(cc1=O)C(NC(C)=O)CCc1cc(OC)c(OC)c(OC)c1-2 (stereo not given)
inactive: dose: 35.0 mg/kg/injection, schedule: Q01DX009 (ip), vehicle: saline 103 % of control | dose: 53.0 mg/kg/injection, schedule: Q01DX009 (ip), vehicle: saline 106 % of control | [1] 93 % of control | dose: 120.0 mg/kg/injection, schedule: Q01DX009 (ip), vehicle: saline 88 % of control | dose: 180.0 mg/kg/injection, schedule: Q01DX009 (ip), vehicle: saline 92 % of control

CN1CCc2cc3c(c4c2C1C(O)c1ccccc1-4)OCO3 (stereo not given)
inactive: dose: 0.5 mg/kg/injection, schedule: Q01DX009 (ip), vehicle: acid diluted with saline 113 % of control | dose: 1.0 mg/kg/injection, schedule: Q01DX009 (ip), vehicle: acid diluted with saline 109 % of control | dose: 2.0 mg/kg/injection, schedule: Q01DX009 (ip), vehicle: acid diluted with saline 96 % of control | dose: 4.0 mg/kg/injection, schedule: Q01DX009 (ip), vehicle: acid diluted with saline 89 % of control

COc1ccc(C(=O)Nc2ccccc2)cc1[N+](=O)[O-]
inactive: [2] 89 % of control | [3] 100 % of control | dose: 400.0 mg/kg/injection, schedule: Q01DX009 (ip), vehicle: Klucel (hydroxypropylcellulose) (HPC) 94 % of control

O=C1NC(=O)/C(=C/c2ccccc2)N1
inactive: [2] 100 % of control | [3] 107 % of control

CC1NC(=O)COC1c1ccccc1 (stereo not given)
inactive: [4] 95 % of control | dose: 12.5 mg/kg/injection, schedule: Q04DX003 (ip), vehicle: saline 95 % of control | [5] 95 % of control | dose: 25.0 mg/kg/injection, schedule: Q04DX003 (ip), vehicle: saline 92 % of control | [6] 102 % of control | dose: 50.0 mg/kg/injection, schedule: Q04DX003 (ip), vehicle: saline 97 % of control | [2] 97 % of control | dose: 100.0 mg/kg/injection, schedule: Q04DX003 (ip), vehicle: saline 95 % of control | dose: 200.0 mg/kg/injection, schedule: Q04DX003 (ip), vehicle: saline 97 % of control

CCCCCCCCCCCCCCCCCCOCC(CO)OC (stereo not given)
inactive: dose: 25.0 mg/kg/injection, schedule: Q01DX009 (ip), vehicle: saline with Tween-80 102 % of control | [7] 100 % of control | [8] 98 % of control | [9] 92 % of control

CCCCc1c(OC)cc(O)c2c1C(=O)c1[nH]c(C(=O)O)c(O)c(=O)c1C2=O
inactive: dose: 7.5 mg/kg/injection, schedule: Q01DX009 (ip), vehicle: Klucel (hydroxypropylcellulose) (HPC) 96 % of control | dose: 15.0 mg/kg/injection, schedule: Q01DX009 (ip), vehicle: Klucel (hydroxypropylcellulose) (HPC) 96 % of control

O=C(O)C1CCCCC1C(=O)Nc1cccc(C(F)(F)F)c1 (stereo not given)
inactive: [4] 114 % of control | [5] 119 % of control | [6] 113 % of control

CC(CC1c2ccccc2CCc2ccccc21)CN(C)C (stereo not given)
inactive: dose: 1.25 mg/kg/injection, schedule: Q01DX009 (ip), vehicle: saline 98 % of control | dose: 2.5 mg/kg/injection, schedule: Q01DX009 (ip), vehicle: saline 106 % of control | dose: 5.0 mg/kg/injection, schedule: Q01DX009 (ip), vehicle: saline 94 % of control | dose: 6.25 mg/kg/injection, schedule: Q01DX009 (ip), vehicle: saline 113 % of control | dose: 10.0 mg/kg/injection, schedule: Q01DX009 (ip), vehicle: saline 106 % of control | [10] 119 % of control | dose: 20.0 mg/kg/injection, schedule: Q01DX009 (ip), vehicle: saline 106 % of control | dose: 40.0 mg/kg/injection, schedule: Q01DX009 (ip), vehicle: saline 101 % of control | [1] 92 % of control

CCCCS(=O)CC(CO)NC(=O)/C=C/c1c(C)[nH]c(=O)[nH]c1=O (stereo not given)
inactive: dose: 0.63 mg/kg/injection, schedule: Q01DX009 (ip), vehicle: water 104 % of control | dose: 1.25 mg/kg/injection, schedule: Q01DX009 (ip), vehicle: water 102 % of control | dose: 2.5 mg/kg/injection, schedule: Q01DX009 (ip), vehicle: water 104 % of control | dose: 5.0 mg/kg/injection, schedule: Q01DX009 (ip), vehicle: water 99 % of control | dose: 10.0 mg/kg/injection, schedule: Q01DX009 (ip), vehicle: water 95 % of control

Nc1nc(=S)c2[nH]cnc2[nH]1
inactive: dose: 0.25 mg/kg/injection, schedule: Q01DX009 (ip), vehicle: saline sonified 100 % of control | dose: 0.25 mg/kg/injection, schedule: Q01DX009 (ip), vehicle: suspension in saline 109 % of control | dose: 0.5 mg/kg/injection, schedule: Q01DX009 (ip), vehicle: saline sonified 112 % of control and 115 % of control | dose: 0.5 mg/kg/injection, schedule: Q01DX009 (ip), vehicle: suspension in saline 120 % of control | dose: 1.0 mg/kg/injection, schedule: Q01DX009 (ip), vehicle: saline sonified 100 % of control | dose: 1.0 mg/kg/injection, schedule: Q01DX009 (ip), vehicle: suspension in saline 105 % of control | dose: 2.0 mg/kg/injection, schedule: Q01DX009 (ip), vehicle: saline sonified 95 % of control and 105 % of control | dose: 2.0 mg/kg/injection, schedule: Q01DX009 (ip), vehicle: saline with Tween-80 111 % of control | dose: 2.0 mg/kg/injection, schedule: Q01DX009 (ip), vehicle: suspension in saline 107 % of control

O=C(O)c1ccccc1C(=O)c1ccc(CBr)cc1
inactive: dose: 0.05 mg/kg/injection, schedule: Q01DX009 (ip), vehicle: saline 100 % of control | dose: 0.1 mg/kg/injection, schedule: Q01DX009 (ip), vehicle: saline 97 % of control | dose: 0.2 mg/kg/injection, schedule: Q01DX009 (ip), vehicle: saline 100 % of control | dose: 0.38 mg/kg/injection, schedule: Q04DX003 (ip), vehicle: saline with Tween-80 91 % of control | dose: 0.75 mg/kg/injection, schedule: Q04DX003 (ip), vehicle: saline with Tween-80 95 % of control | dose: 1.5 mg/kg/injection, schedule: Q01DX009 (ip), vehicle: saline with Tween-80 87 % of control | dose: 1.5 mg/kg/injection, schedule: Q04DX003 (ip), vehicle: saline with Tween-80 100 % of control | dose: 1.56 mg/kg/injection, schedule: Q04DX003 (ip), vehicle: saline with Tween-80 100 % of control

CCOC(=O)C(CC)c1ccccc1 (stereo not given)
inactive: [7] 91 % of control | [8] 95 % of control

Cc1c2c(ccc3ccccc32)c[n+]2ccccc12
inactive: dose: 1.56 mg/kg/injection, schedule: Q01DX009 (ip), vehicle: suspension in saline 98 % of control | dose: 3.12 mg/kg/injection, schedule: Q01DX009 (ip), vehicle: suspension in saline 101 % of control | dose: 6.25 mg/kg/injection, schedule: Q01DX009 (ip), vehicle: suspension in saline 106 % of control | dose: 12.5 mg/kg/injection, schedule: Q01DX009 (ip), vehicle: suspension in saline 103 % of control

O=C1c2ccccc2C(=O)c2c(NCCN3CCNCC3)ccc(NCCN3CCNCC3)c21
inactive: dose: 8.0 mg/kg/injection, schedule: Q01DX009 (ip), vehicle: acid diluted with saline 106 % of control | dose: 16.0 mg/kg/injection, schedule: Q01DX009 (ip), vehicle: acid diluted with saline 104 % of control | dose: 32.0 mg/kg/injection, schedule: Q01DX009 (ip), vehicle: acid diluted with saline 104 % of control | dose: 64.0 mg/kg/injection, schedule: Q01DX009 (ip), vehicle: acid diluted with saline 96 % of control

COC(=O)C1=C(O)CN(C)C1=O
inactive: dose: 37.5 mg/kg/injection, schedule: Q04DX003 (ip), vehicle: saline 102 % of control | dose: 75.0 mg/kg/injection, schedule: Q04DX003 (ip), vehicle: saline 100 % of control | dose: 150.0 mg/kg/injection, schedule: Q04DX003 (ip), vehicle: saline 108 % of control

OCCN1CCN(CCCN2c3ccccc3Sc3cccnc32)CC1
inactive: dose: 9.37 mg/kg/injection, schedule: Q01DX009 (ip), vehicle: saline 89 % of control | [10] 93 % of control | dose: 18.75 mg/kg/injection, schedule: Q01DX009 (ip), vehicle: saline 107 % of control | dose: 25.0 mg/kg/injection, schedule: Q01DX009 (ip), vehicle: saline 113 % of control | dose: 37.5 mg/kg/injection, schedule: Q01DX009 (ip), vehicle: saline 105 % of control | dose: 75.0 mg/kg/injection, schedule: Q01DX009 (ip), vehicle: saline 102 % of control

CC(C)CC(NC(=O)C(CC(C)C)NC(=O)OCc1ccccc1)C(=O)O (stereo not given)
inactive: [7] 97 % of control | [8] 101 % of control | [9] 92 % of control
